Experimental data as given in patent EP3046573B1, “AMYLIN ANALOGUES” (Zealand Pharma A/S, priority 2013, dated 2015).
pEC50: −log10 of the molar value. Numbered stars: 1 amine (or outer) side, 2 acyl side, 3 side chain; on linkers, the order of the positions; unused ones are H or OH. Bridge positions count the residues as written; N and C are the ends. Square brackets hold non-standard residues; d marks the D form. Peptide text beside a SMILES is read from it. * marks the point of attachment. C20 diacid = O=C(O)CCCCCCCCCCCCCCCCCCC(=O)*; γGlu = O=C(O)[C@H](CCC(=O)[*:2])N[*:1]; NMeI = CC[C@H](C)[C@H](NC)C(=O)O; NMeA = CN[C@@H](C)C(=O)O; Sar = CNCC(=O)O

Key:
[1] = target: T1, human calcitonin receptor (hCTR2) (Homo sapiens, UniProt P30988); assay: hCTR2 assay: induction of cAMP (AlphaScreen cAMP Assay kit) in COS7 cells expressing hCTR2; assay type: cell-based
T1 construct: expressed in transfected cells
T1 sequence (P30988 25-474): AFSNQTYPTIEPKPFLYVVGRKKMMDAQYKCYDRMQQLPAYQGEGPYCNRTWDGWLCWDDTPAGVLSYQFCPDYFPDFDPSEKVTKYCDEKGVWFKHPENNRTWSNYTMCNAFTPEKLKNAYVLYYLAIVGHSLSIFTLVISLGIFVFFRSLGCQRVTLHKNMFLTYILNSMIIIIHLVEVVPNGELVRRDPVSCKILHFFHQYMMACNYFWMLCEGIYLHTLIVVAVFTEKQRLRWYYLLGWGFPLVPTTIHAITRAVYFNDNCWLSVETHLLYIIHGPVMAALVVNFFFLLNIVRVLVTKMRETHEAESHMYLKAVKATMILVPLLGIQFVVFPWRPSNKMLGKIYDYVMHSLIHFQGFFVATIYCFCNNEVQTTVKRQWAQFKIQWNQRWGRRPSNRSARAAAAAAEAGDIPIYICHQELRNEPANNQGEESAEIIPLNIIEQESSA
In short: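 Stable hCTR2 clone in RAMP-naive COS7 cells; peptides titrated in Tyrode buffer (pH 7.4) with 100 µM IBMX, 0.1% casein, 15 min at 37° C. cAMP read by AlphaScreen after lysis; EC50 and efficacy relative to pramlintide from 4PL fit.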

[2] = target: T2, human amylin receptor 3 (hAMYR3) consisting of hCTR2 co-expressed with human Receptor Activity Modifying Protein 3 (hRAMP3) (Homo sapiens, UniProt O60896+P30988); assay: hAMYR3 assay: induction of cAMP (AlphaScreen cAMP Assay kit) in COS7 cells expressing hAMYR3; assay type: cell-based
T2 construct: expressed in transfected cells
T2 sequence (P30988 25-474): T1 sequence (P30988 25-474)
T2 sequence (O60896 24-148 partner): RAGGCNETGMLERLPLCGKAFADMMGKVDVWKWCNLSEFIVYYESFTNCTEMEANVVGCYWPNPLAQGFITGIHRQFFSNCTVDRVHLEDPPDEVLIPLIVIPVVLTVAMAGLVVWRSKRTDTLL
In short: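 Stable COS7 clone co-expressing hCTR2 and hRAMP3, stimulated 15 min at 37° C with increasing peptide in Tyrode buffer pH 7.4 with 100 µM IBMX and 0.1% casein. cAMP measured by AlphaScreen after lysis; EC50 and % efficacy versus pramlintide from 4PL fit.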

[3] = Solubility assessment (turbidity absorbance at 325 nm); assay type: physicochemical; conditions: stock 2 mg/ml diluted 1:1, ambient temperature (typically 25°C), n=1; for Solubility, Acetate buffer pH 4: 100 mM acetate buffer pH 4.0; for Solubility, Acetate buffer pH 5: 100 mM acetate buffer pH 5.0; for Solubility, Histidine buffer pH 6: 100 mM histidine buffer pH 6.0; for Solubility, Histidine buffer pH 7: 100 mM histidine buffer pH 7.0; for Solubility, Phosphate buffer pH 6: 100 mM phosphate buffer pH 6.0; for Solubility, Phosphate buffer pH 7: 100 mM phosphate buffer pH 7.0; for Solubility, Phosphate buffer pH 7.5: 100 mM phosphate buffer pH7.5
In short: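 Peptide stock (2 mg/ml) in water acidified to pH 2.5 with HCl was diluted 1:1 into 100 mM acetate (pH 4.0, 5.0), histidine (pH 6.0, 7.0) or phosphate (pH 6.0, 7.0, 7.5) buffer. A280 and A325 were read at about 25°C, n=1. A325 ≤ 0.02 meant solubility ≥ 1 mg/ml.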

CC[C@H](C)[C@@H](C(=O)N[C@@H](CC(C)C)C(=O)N[C@@H](CO)C(=O)N[C@@H](CO)C(=O)N[C@H](C(=O)N[C@@H](CC(N)=O)C(=O)N[C@H](C(=O)NCC(=O)N[C@@H](CO)C(=O)N[C@@H](CC(N)=O)C(=O)N[C@H](C(=O)N(C)CC(N)=O)[C@@H](C)O)C(C)C)[C@@H](C)O)N(C)C(=O)[C@H](C)NC(=O)CN(C)C(=O)[C@H](Cc1ccccc1)NC(=O)[C@H](CC(N)=O)NC(=O)[C@H](CC(N)=O)NC(=O)[C@H](CO)NC(=O)[C@H](CO)NC(=O)[C@H](CCCNC(=N)N)NC(=O)[C@H](Cc1c[nH]cn1)NC(=O)[C@H](CC(C)C)NC(=O)[C@H](Cc1ccccc1)NC(=O)[C@H](CCC(=O)O)NC(=O)[C@H](C)NC(=O)[C@H](CC(C)C)NC(=O)[C@H](CCCNC(=N)N)NC(=O)[C@H](CCC(N)=O)NC(=O)[C@@H](NC(=O)[C@H](C)NC(=O)[C@@H]1CSSC[C@H](NC(=O)[C@H](CCCNC(=N)N)NC(=O)CC[C@H](NC(=O)CCCCCCCCCCCCCCCCCCC(=O)O)C(=O)O)C(=O)N[C@@H](CC(N)=O)C(=O)N[C@@H]([C@@H](C)O)C(=O)N[C@@H](C)C(=O)N[C@@H]([C@@H](C)O)C(=O)N1)[C@@H](C)O [Compound 101, [19CD]-isoGlu-RC()NTATC()ATQRLAEFLHRSSNNF-Gly(Me)-A-Ile(Me)-LSSTNVGSNT-Gly(Me)-NH2] ({C20 diacid-γGlu}-RCNTATCATQRLAEFLHRSSNNF[Sar]A[NMeI]LSSTNVGSNT[Sar]-NH2; disulfide 2-7)
pEC50 [1]: 9.22 | pEC50 [2]: 8.57 | Solubility, Acetate buffer pH 4 [3]: SS (SS indicates solubility ≥ 1mg/ml) | Solubility, Acetate buffer pH 5 [3]: SS (SS indicates solubility ≥ 1mg/ml) | Solubility, Histidine buffer pH 6 [3]: SS (SS indicates solubility ≥ 1mg/ml) | Solubility, Histidine buffer pH 7 [3]: SS (SS indicates solubility ≥ 1mg/ml) | Solubility, Phosphate buffer pH 6 [3]: II (II indicates solubility ≤ 1 mg/ml) | Solubility, Phosphate buffer pH 7 [3]: SS (SS indicates solubility ≥ 1mg/ml) | Solubility, Phosphate buffer pH 7.5 [3]: SS (SS indicates solubility ≥ 1mg/ml)

CC[C@H](C)[C@@H](C(=O)N[C@@H](CC(C)C)C(=O)N[C@@H](CO)C(=O)N[C@@H](CO)C(=O)N[C@H](C(=O)N[C@@H](CC(N)=O)C(=O)N[C@H](C(=O)NCC(=O)N[C@@H](CO)C(=O)N[C@@H](CC(N)=O)C(=O)N[C@H](C(=O)N(C)[C@@H](C)C(N)=O)[C@@H](C)O)C(C)C)[C@@H](C)O)N(C)C(=O)[C@H](C)NC(=O)CN(C)C(=O)[C@H](Cc1ccccc1)NC(=O)[C@H](CC(N)=O)NC(=O)[C@H](CC(N)=O)NC(=O)[C@H](CO)NC(=O)[C@H](CO)NC(=O)[C@H](CCCNC(=N)N)NC(=O)[C@H](Cc1c[nH]cn1)NC(=O)[C@H](CC(C)C)NC(=O)[C@H](Cc1ccccc1)NC(=O)[C@H](CCC(=O)O)NC(=O)[C@H](C)NC(=O)[C@H](CC(C)C)NC(=O)[C@H](CCCNC(=N)N)NC(=O)[C@H](CCC(N)=O)NC(=O)[C@@H](NC(=O)[C@H](C)NC(=O)[C@@H]1CSSC[C@H](NC(=O)[C@H](CCCNC(=N)N)NC(=O)CC[C@H](NC(=O)CCCCCCCCCCCCCCCCCCC(=O)O)C(=O)O)C(=O)N[C@@H](CC(N)=O)C(=O)N[C@@H]([C@@H](C)O)C(=O)N[C@@H](C)C(=O)N[C@@H]([C@@H](C)O)C(=O)N1)[C@@H](C)O [Compound 102, [19CD]-isoGlu-RC()NTATC()ATQRLAEFLHRSSNNF-Gly(Me)-A-Ile(Me)-LSSTNVGSNT-Ala(Me)-NH2] ({C20 diacid-γGlu}-RCNTATCATQRLAEFLHRSSNNF[Sar]A[NMeI]LSSTNVGSNT[NMeA]-NH2; disulfide 2-7)
pEC50 [1]: 9.38 | pEC50 [2]: 9.00 | Solubility, Acetate buffer pH 4 [3]: SS (SS indicates solubility ≥ 1mg/ml) | Solubility, Acetate buffer pH 5 [3]: II (II indicates solubility ≤ 1 mg/ml) | Solubility, Histidine buffer pH 6 [3]: SS (SS indicates solubility ≥ 1mg/ml) | Solubility, Histidine buffer pH 7 [3]: SS (SS indicates solubility ≥ 1mg/ml) | Solubility, Phosphate buffer pH 6 [3]: II (II indicates solubility ≤ 1 mg/ml) | Solubility, Phosphate buffer pH 7 [3]: SS (SS indicates solubility ≥ 1mg/ml) | Solubility, Phosphate buffer pH 7.5 [3]: SS (SS indicates solubility ≥ 1mg/ml)

CC[C@H](C)[C@@H](C(=O)N[C@@H](CC(C)C)C(=O)N[C@@H](CO)C(=O)N[C@@H](CO)C(=O)N[C@H](C(=O)N[C@@H](CC(N)=O)C(=O)N[C@H](C(=O)NCC(=O)N[C@@H](CO)C(=O)N[C@@H](CC(N)=O)C(=O)N[C@H](C(=O)N(C)[C@H](C(N)=O)[C@@H](C)CC)[C@@H](C)O)C(C)C)[C@@H](C)O)N(C)C(=O)[C@H](C)NC(=O)CN(C)C(=O)[C@H](Cc1ccccc1)NC(=O)[C@H](CC(N)=O)NC(=O)[C@H](CC(N)=O)NC(=O)[C@H](CO)NC(=O)[C@H](CO)NC(=O)[C@H](CCCNC(=N)N)NC(=O)[C@H](Cc1c[nH]cn1)NC(=O)[C@H](CC(C)C)NC(=O)[C@H](Cc1ccccc1)NC(=O)[C@H](CCC(=O)O)NC(=O)[C@H](C)NC(=O)[C@H](CC(C)C)NC(=O)[C@H](CCCNC(=N)N)NC(=O)[C@H](CCC(N)=O)NC(=O)[C@@H](NC(=O)[C@H](C)NC(=O)[C@@H]1CSSC[C@H](NC(=O)[C@H](CCCNC(=N)N)NC(=O)CC[C@H](NC(=O)CCCCCCCCCCCCCCCCCCC(=O)O)C(=O)O)C(=O)N[C@@H](CC(N)=O)C(=O)N[C@@H]([C@@H](C)O)C(=O)N[C@@H](C)C(=O)N[C@@H]([C@@H](C)O)C(=O)N1)[C@@H](C)O [Compound 103, [19CD]-isoGlu-RC()NTATC()ATQRLAEFLHRSSNNF-Gly(Me)-A-Ile(Me)-LSSTNVGSNT-Ile(Me)-NH2H2] ({C20 diacid-γGlu}-RCNTATCATQRLAEFLHRSSNNF[Sar]A[NMeI]LSSTNVGSNT[NMeI]-NH2; disulfide 2-7)
pEC50 [1]: 9.19 | pEC50 [2]: 8.29 | Solubility, Acetate buffer pH 4 [3]: SS (SS indicates solubility ≥ 1mg/ml) | Solubility, Acetate buffer pH 5 [3]: SS (SS indicates solubility ≥ 1mg/ml) | Solubility, Histidine buffer pH 6 [3]: SS (SS indicates solubility ≥ 1mg/ml) | Solubility, Histidine buffer pH 7 [3]: SS (SS indicates solubility ≥ 1mg/ml) | Solubility, Phosphate buffer pH 6 [3]: II (II indicates solubility ≤ 1 mg/ml) | Solubility, Phosphate buffer pH 7 [3]: SS (SS indicates solubility ≥ 1mg/ml) | Solubility, Phosphate buffer pH 7.5 [3]: SS (SS indicates solubility ≥ 1mg/ml)
